Calls of active or inactive are those of the source. Cut-off read from the data, not from the text of the source: actives have a measured IC50 and inactives only a lower limit.

In the assay the target is Envelope glycoprotein gp160 (Human immunodeficiency virus 1, UniProt Q6QLK5). Nature of the assay: inhibitors of HIV fusion peptide binding, primary screen, biochemical, uHTS, fluorescence dequenching (AID 1986).
Chain of Envelope glycoprotein gp160 (Q6QLK5 whole entry, the tested form may be a part): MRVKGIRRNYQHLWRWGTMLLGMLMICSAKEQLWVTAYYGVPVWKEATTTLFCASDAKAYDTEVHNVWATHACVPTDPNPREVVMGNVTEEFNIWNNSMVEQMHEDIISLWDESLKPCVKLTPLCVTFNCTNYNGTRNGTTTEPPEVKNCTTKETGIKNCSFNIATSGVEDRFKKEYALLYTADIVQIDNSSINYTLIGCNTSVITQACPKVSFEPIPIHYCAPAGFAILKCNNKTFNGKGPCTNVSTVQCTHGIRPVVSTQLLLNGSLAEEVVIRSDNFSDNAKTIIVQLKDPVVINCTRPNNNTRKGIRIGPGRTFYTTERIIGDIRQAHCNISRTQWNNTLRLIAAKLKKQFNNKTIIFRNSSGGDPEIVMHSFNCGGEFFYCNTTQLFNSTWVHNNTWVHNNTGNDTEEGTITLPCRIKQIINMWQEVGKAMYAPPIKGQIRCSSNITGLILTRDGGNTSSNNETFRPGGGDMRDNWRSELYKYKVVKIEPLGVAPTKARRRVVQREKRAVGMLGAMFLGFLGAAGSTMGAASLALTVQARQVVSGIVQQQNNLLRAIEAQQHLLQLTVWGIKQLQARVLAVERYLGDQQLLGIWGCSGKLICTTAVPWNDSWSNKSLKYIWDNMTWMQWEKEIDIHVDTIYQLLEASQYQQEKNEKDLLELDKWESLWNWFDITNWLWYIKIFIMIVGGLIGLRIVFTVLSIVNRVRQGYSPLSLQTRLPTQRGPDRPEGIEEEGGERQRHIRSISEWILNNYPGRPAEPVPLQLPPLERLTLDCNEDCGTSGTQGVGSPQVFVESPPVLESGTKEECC
As a reminder, the IC50 is the concentration at which inhibition is half-maximal. In the case of `CCn1nc([N+](=O)[O-])c(C(C#N)c2nc3cc(C(F)(F)F)ccc3s2)c(Cl)c1=O` (stereo not drawn), the IC50 was 14.9 µM (active).
In the case of `CC(c1ccccc1)N1C(=O)c2ccc(C(=O)Nc3ccccc3C(=O)O)cc2C1=O` (stereo not drawn), the IC50 is 19.3 µM (active).
Regarding `Cc1c2c(=O)n(-c3nc4ccccc4s3)nc-2cc(O)n1Cc1ccccc1`, the IC50 was 13.8 µM (active).

Values taken from ChEMBL document CHEMBL1201862, “PubChem BioAssay data set” (2004).
